Where two headings read alike, the source gives them in different places.
Columns and labels:
Type in all cases: biochemical
Conditions in all cases: 25° C.
[1] = target: T1, Agrobacterium tumefaciens anthranilate synthase (AgroAS), wild type, SEQ ID NO: 4 (Agrobacterium fabrum, UniProt A9CI26); assay: Anthranilate synthase assay, anthranilate formation by absorbance at 320 nm
T1 construct: no tag mentioned
Protocol: (§1) Agrobacterium tumefaciens AS wild type and mutant enzymes were expressed in E. coli as described in Example 1. The purification of all the Agrobacterium tumefaciens AS enzymes, including wild type and mutants thereof, was performed at 4° C. The cells (approximate wet weight of 1 g) were suspended in 20 ml of purification buffer (50 mM potassium phosphate, pH 7.3, 10 mM MgCl2, 10 mM 2-mercaptoethanol, 10% glycerol) and lysed by ultrasonication (Branson sonifier Cell Disruptor, W185). Supernatant was collected after centrifugation of the homogenate at 20,000×g for 15 min. The supernatant was subjected to ammonium sulfate fractionation (30 to 65% saturation). The precipitate was collected after centrifugation at 20,000×g for 15 min and dissolved in 3 ml of the purification buffer and then loaded as a whole on an Econo-Pac 10DG desalting column, pre-equilibrated with the same buffer. Fractions containing the enzyme were detected by the developed assay and pooled. The pooled enzyme (4.3 mls) was loaded on a 10 ml DEAF Sephacel (Pharmacia Biotech) column (1.5×7.5 cm) equilibrated with the same buffer. The column was washed with 30 ml of the purification buffer and the enzyme was eluted with 30 ml of 50 mM NaCl in the same buffer. Fractions containing high AS activity were pooled and precipitated by 65% ammonium sulfate saturation and isolated and desalted as above. Fractions containing the enzyme were pooled and stored at −80° C.
The standard assay for Agrobacterium tumefaciens AS was performed at 25° C. in an assay buffer containing 100 mM potassium phosphate, pH 7.0, 10 mM MgCl2, 1 mM dithiothreitol, 200 μM chorismate and 10 mM L-glutamine. The reaction was started by adding 30 μl of enzyme to the reaction mixture and mixing. The formation of anthranilate was directly monitored by the absorbance increase at 320 m for 3 minutes. Initial rate of reaction was calculated as unit absorbance increase per second based on the slope of the absorbance change over the reaction time. Km for chorismate (Km^Cho) was determined in the total volume of 1 ml assay buffer containing 100 mM potassium phosphate, pH 7.0, 10 mM MgCl2, 1 mM dithiothreitol with 10 mM L-glutamine and varying the concentration of chorismate between 2.5-100 μM chorismate. The Km for glutamine (Km^Gln) was determined in the total volume of 1 ml assay buffer containing 100 mM potassium phosphate, pH 7.0, 10 mM MgCl2, 1 mM dithiothreitol with 200 μM chorismate and varying the concentration of L-glutamine between 0.1-2 mM L-glutamine. […] Kinetic parameters and IC50 of AS were calculated after fitting the data to a non-linear regression program (GraFit).

[2] = target: T2, Agrobacterium tumefaciens anthranilate synthase V48F mutant, SEQ ID NO: 58 (Agrobacterium fabrum, UniProt A9CI26, V48F); assay: Anthranilate synthase assay, V48F mutant
T2 construct: no tag mentioned
Text: (§2) Site directed mutagenesis was used to generate ten single amino acid substitutions six sites. The mutations were introduced into the Agrobacterium tumefaciens AS in pMON34705 using the QuikChange™ Site-Directed Mutagenesis Kit (Stratagene). The primers used for site directed mutagenesis were SEQ ID NOs: 9-42 (FIG. 7; F=forward, R=reverse). Each primer sequence is specific for alteration of the nucleic acid at a specific location in the sequence and thus changing the encoded codon to code for a new amino acid. For example, S51C designates a change from serine to cysteine at amino acid position 51 in the Agrobacterium tumefaciens AS peptide sequence.
(§3) Following mutagenesis the sequence of the entire gene was reconfirmed and the variants expressed and purified from E. coli as described below for the wild type enzyme. The resultant plasmids comprising mutant Agrobacterium tumefaciens AS are suitably cloned into a plasmid for overproduction of protein using the T7 expression system as described in Example 1.
as §1, with “The column was washed with 30 ml of the purification buffer and the enzyme was eluted with 30 ml of 50 mM NaCl in the same buffer. Fractions containing high AS activity were pooled and precipitated by 65% ammonium sulfate saturation and isolated and desalted as above. Fractions containing the enzyme were pooled and stored at −80° C.” left out
(§4) The standard assay for Agrobacterium tumefaciens AS was performed at 25° C. in an assay buffer containing 100 mM potassium phosphate, pH 7.0, 10 mM MgCl2, 1 mM dithiothreitol, 200 μM chorismate and 10 mM L-glutamine. […] The formation of anthranilate was directly monitored by the absorbance increase at 320 m for 3 minutes. Initial rate of reaction was calculated as unit absorbance increase per second based on the slope of the absorbance change over the reaction time. […] Kinetic parameters and IC50 of AS were calculated after fitting the data to a non-linear regression program (GraFit).

[3] = target: T3, Agrobacterium tumefaciens anthranilate synthase V48Y mutant, SEQ ID NO: 59 (Agrobacterium fabrum, UniProt A9CI26, V48Y); assay: Anthranilate synthase assay, V48Y mutant
T3 construct: no tag mentioned
Text: as §2, §3
as §1, with “The column was washed with 30 ml of the purification buffer and the enzyme was eluted with 30 ml of 50 mM NaCl in the same buffer. Fractions containing high AS activity were pooled and precipitated by 65% ammonium sulfate saturation and isolated and desalted as above. Fractions containing the enzyme were pooled and stored at −80° C.” left out
as §4

[4] = target: T4, Agrobacterium tumefaciens anthranilate synthase S50K mutant, SEQ ID NO: 69 (Agrobacterium fabrum, UniProt A9CI26, S50K); assay: Anthranilate synthase assay, S50K mutant
T4 construct: no tag mentioned
Text: as §2, §3
as §1, with “The column was washed with 30 ml of the purification buffer and the enzyme was eluted with 30 ml of 50 mM NaCl in the same buffer. Fractions containing high AS activity were pooled and precipitated by 65% ammonium sulfate saturation and isolated and desalted as above. Fractions containing the enzyme were pooled and stored at −80° C.” left out
as §4

[5] = target: T5, Agrobacterium tumefaciens anthranilate synthase S51F mutant, SEQ ID NO: 60 (Agrobacterium fabrum, UniProt A9CI26, S51F); assay: Anthranilate synthase assay, S51F mutant
T5 construct: no tag mentioned
Text: as §2, §3
as §1, with “The column was washed with 30 ml of the purification buffer and the enzyme was eluted with 30 ml of 50 mM NaCl in the same buffer. Fractions containing high AS activity were pooled and precipitated by 65% ammonium sulfate saturation and isolated and desalted as above. Fractions containing the enzyme were pooled and stored at −80° C.” left out
as §4

[6] = target: T6, Agrobacterium tumefaciens anthranilate synthase S51C mutant, SEQ ID NO: 61 (Agrobacterium fabrum, UniProt A9CI26, S51C); assay: Anthranilate synthase assay, S51C mutant
T6 construct: no tag mentioned
Text: as §2, §3
as §1, with “The column was washed with 30 ml of the purification buffer and the enzyme was eluted with 30 ml of 50 mM NaCl in the same buffer. Fractions containing high AS activity were pooled and precipitated by 65% ammonium sulfate saturation and isolated and desalted as above. Fractions containing the enzyme were pooled and stored at −80° C.” left out
as §4

[7] = target: T7, Agrobacterium tumefaciens anthranilate synthase N52F mutant, SEQ ID NO: 62 (Agrobacterium fabrum, UniProt A9CI26, N52F); assay: Anthranilate synthase assay, N52F mutant
T7 construct: no tag mentioned
Text: as §2, §3
as §1, with “The column was washed with 30 ml of the purification buffer and the enzyme was eluted with 30 ml of 50 mM NaCl in the same buffer. Fractions containing high AS activity were pooled and precipitated by 65% ammonium sulfate saturation and isolated and desalted as above. Fractions containing the enzyme were pooled and stored at −80° C.” left out
as §4

[8] = target: T8, Agrobacterium tumefaciens anthranilate synthase P293A mutant, SEQ ID NO: 63 (Agrobacterium fabrum, UniProt A9CI26, P293A); assay: Anthranilate synthase assay, P293A mutant
T8 construct: no tag mentioned
Text: as §2, §3
as §1, with “The column was washed with 30 ml of the purification buffer and the enzyme was eluted with 30 ml of 50 mM NaCl in the same buffer. Fractions containing high AS activity were pooled and precipitated by 65% ammonium sulfate saturation and isolated and desalted as above. Fractions containing the enzyme were pooled and stored at −80° C.” left out
as §4

[9] = target: T9, Agrobacterium tumefaciens anthranilate synthase P293G mutant, SEQ ID NO: 64 (Agrobacterium fabrum, UniProt A9CI26, P293G); assay: Anthranilate synthase assay, P293G mutant
T9 construct: no tag mentioned
Text: as §2, §3
as §1, with “The column was washed with 30 ml of the purification buffer and the enzyme was eluted with 30 ml of 50 mM NaCl in the same buffer. Fractions containing high AS activity were pooled and precipitated by 65% ammonium sulfate saturation and isolated and desalted as above. Fractions containing the enzyme were pooled and stored at −80° C.” left out
as §4

[10] = pH 7.0, 10 mM L-glutamine, 2.5-100 μM chorismate, read-out: Km for chorismate (Km^Cho)
[11] = pH 7.0, 200 μM chorismate, 0.1-2 mM L-glutamine, read-out: Km for glutamine (Km^Gln)

C=C(O[C@@H]1C=C(C(=O)O)C=C[C@H]1O)C(=O)O [chorismate]
kcat ([1]; pH 7.0): 0.43 s⁻¹
kcat/Km^Cho ([1]; pH 7.0): 53700 M⁻¹ s⁻¹
Km [1, 10]: 8 µM
kcat ([2]; pH 7.0): 0.24 s⁻¹
kcat/Km^Cho ([2]; pH 7.0): 53300 M⁻¹ s⁻¹
Km [2, 10]: 4.5 µM
kcat ([3]; pH 7.0): 0.18 s⁻¹
kcat/Km^Cho ([3]; pH 7.0): 42800 M⁻¹ s⁻¹
Km [3, 10]: 4.2 µM
kcat ([4]; pH 7.0): 0.13 s⁻¹
kcat/Km^Cho ([4]; pH 7.0): 10000 M⁻¹ s⁻¹
Km [4, 10]: 13 µM
kcat ([5]; pH 7.0): 0.08 s⁻¹
kcat/Km^Cho ([5]; pH 7.0): 8000 M⁻¹ s⁻¹
Km [5, 10]: 10 µM
kcat ([6]; pH 7.0): 0.15 s⁻¹
kcat/Km^Cho ([6]; pH 7.0): 53600 M⁻¹ s⁻¹
Km [6, 10]: 2.8 µM
kcat ([7]; pH 7.0): 0.21 s⁻¹
kcat/Km^Cho ([7]; pH 7.0): 38200 M⁻¹ s⁻¹
Km [7, 10]: 5.5 µM
kcat ([8]; pH 7.0): 0.35 s⁻¹
kcat/Km^Cho ([8]; pH 7.0): 14600 M⁻¹ s⁻¹
Km [8, 10]: 24 µM
kcat ([9]; pH 7.0): 0.48 s⁻¹
kcat/Km^Cho ([9]; pH 7.0): 14500 M⁻¹ s⁻¹
Km [9, 10]: 33 µM

NC(=O)CC[C@H](N)C(=O)O [glutamine, L-glutamine]
Km [1, 11]: 110 µM
Km [2, 11]: 80 µM
Km [3, 11]: 100 µM
Km [4, 11]: 10 µM
Km [5, 11]: 60 µM
Km [6, 11]: 80 µM
Km [7, 11]: 40 µM
Km [8, 11]: 160 µM
Km [9, 11]: 70 µM
